{"source": "paper PMC10813753", "about": "(Biology, 2024)", "assay_type_in_all_cases": "cell-based, human", "key": {"HeLa cells (cervix)": {"test_system": "HeLa cells (cervix)", "assay": "MTT viability assay HeLa", "details": "72 h", "description": "(§1) A panel of five tumor cell lines and two normal cell lines was used to preliminarily test the cytotoxicity of compounds 1–4, and the experiments were conducted as previously reported. All human cell lines were acquired from American Type Culture Collection (ATCC): tumor PC-3 and DU145 (prostate), HeLa (cervix), MCF7 (breast) and HT29 (colorectal) and healthy HFF-1 (fibroblast) and RWPE-1 (prostate). The cell catalogue reference and culture media used in the experiments were CRL-1435^TM, RPMI (PC-3), HTB-81™, RPMI (DU145), CCL-2^TM, DMEM (HeLa), HTB-22^TM, DMEM (MCF-7), HTB-38^TM, modified McCoy’s 5a medium, Catalogue No. 30-2007 (HT29), SCRC-1041^TM, DMEM (HFF-1) and CRL-11609^TM, Keratinocyte-SFM (RWPE-1). Culture media were purchased from Merck: RPMI-1640, DMEM + 10% FBS (Fetal Bovine Serum) + […] (penicillin/streptomycin/amphotericin B). Media and supplements for RWPE-1 were from ThermoFisher (17005075, Madrid, Spain). MCF7 cells were additionally supplemented with insulin (0.001 mg/mL in 500 mL media). Cells were kept at 37 °C (5% CO2), and culture media were renewed three times per week. When the cells reached 80–100% confluence, they were trypsinized and centrifuged, and the concentration was adjusted to each experiment. Cells were seeded at a density of ~10,000 cells/well into 24-well plates. The cells were treated with ligands 1–4 or the cytotoxic agents PhenQE8, PhenDC3 or cisplatin at different concentrations (10 nM–100 μM). Compound solutions were freshly prepared using the appropriate culture medium. Triplicate experiments were run. For MTT viability assays, after 72 h incubation, 50 μL of MTT (5 mg/mL) was added, and an additional incubation of 4 h was allowed. The medium in each well was then replaced by DMSO, and the absorbance was measured at 570 nm using an ELISA plate reader. Absorbances were normalized using negative controls (untreated cells, in triplicate, with a maximum of 0.9% DMSO content). Dose–response curves were obtained by plotting the percentage of viable cells versus logarithmic compound concentration. IC50 values were determined using Kaleidagragh^TM (3.52) software by adjusting the data to Equation 1/(1 + 10^(m2*(log(m1) − x))); m1 = 0.000003; m2 = 1."}, "HT29 cells (colorectal)": {"test_system": "HT29 cells (colorectal)", "assay": "MTT viability assay HT29", "details": "72 h", "description": "as §1, with “Dose–response curves were obtained by plotting the percentage of viable cells versus logarithmic compound concentration.” left out"}, "HeLa cells": {"test_system": "HeLa cells", "assay": "Cell cycle analysis by flow cytometry, HeLa", "details": "½ IC50 concentration, 72 h", "description": "For cell cycle experiments, exponentially growing HeLa cells in DMEM were seeded in 6-well plates at a density of 2.5 × 10^5/well. […] Untreated cells were used as controls. After washing with PBS, cells were detached with 0.25% trypsin/0.2% EDTA and centrifuged at 1500 rpm for 5 min at rt. The resulting pellets were mixed with cold 70% ethanol (0.5 mL) and kept at 4 °C for 30 min. Ethanol was removed by centrifugation, and the pellets were washed with 2 mL PBS + 2% BSA and centrifuged. After discarding the supernatants, a propidium iodide solution (PI/RNAse, FxCycle^TM, Invitrogen^TM ref. F10797, 0.5 mL, Thermo Fisher, Madrid, Spain) was added, mixed thoroughly and incubated for 15 min at room temperature prior to analysis by flow cytometry. A total of 10,000 events were registered for each sample. The obtained results were analyzed with the MacsQuantify 2.13.1 program (Miltenyi Biotech, Pozuelo de Alarcón, Spain) and represented as histograms."}}}
{"substance": "2,2′-(1,10-Phenanthroline-2,9-diyl)-bis(methylene)-bis(hydrazine-1-carbothioamide) [compound 1]", "values": [{"measurement": "IC50", "setting": "HeLa cells (cervix)", "result": "~100", "unit": "µM"}, {"measurement": "IC50", "setting": "HT29 cells (colorectal)", "result": "> 100", "unit": "µM"}, {"measurement": "change in SubG0 population", "setting": "HeLa cells", "result": "notably increased the number of cells in SubG0"}]}
